From patent US20030171393A1, “Drugs for sex dysfunctions” (priority 2000, published 2003) come the findings set out here.

One test deals with cavernous body. Put plainly: Relaxation in vitro of cavernous body tissue precontracted with phenylephrine. The conditions noted are these: for Cavernous body % relaxation: tissue precontracted with phenylephrine 10 μM; for Power ratio: ratio between myorelaxing effect on cavernous body and effect on aorta. Format: cell-based, White New Zealand rabbits. The text has this: (§1) The relaxing effect of the tested drugs on carvernous body tissues has been evaluated with experiments in vitro as a measure of the inhibiting action on the impotence, and on aorta tissues as expression of the undesired hypotensive effect.
(§2) White New Zealand rabbits were sacrificed, cavernous body and aorta specimens were taken and suitably prepared for the determination of the myorelaxing activity in vitro, according to the procedure described by J. Jeremy (Br. J. Urology 79,958-63,1997).
(§3) The tissues were precontracted with phenylephrine (10 μM) and the relaxation was determined in the presence of the compounds object of the invention.
(§4) The 2-(acetyloxy)benzoic acid 6-(nitroxy methyl)-2-methylpyridyl ester hydrochloride (NCX 4050) is prepared as described in patent application PCT/EP 00/01454 (Ex. 1) , the sildenafil nitrate has been prepared as described in patent application WO 99/67231 (Ex. 3). The products used in the experiment were dissolved in dimethylsulphoxide, except sodium nitroprussiate which was dissolved in distilled water.

In the next test the test system is aorta. The experiment in a line: Relaxation in vitro of aorta tissue precontracted with phenylephrine (undesired hypotensive effect). Format: cell-based, White New Zealand rabbits. The conditions noted are these: tissue precontracted with phenylephrine 10 μM.
Text: as §1, §2, §3, §4

The test system of test [1] is aorta tissues pretreated with sodium nitroprussiate. Put plainly: Aorta relaxation in vitro in the presence of the NO-donor sodium nitroprussiate. Format: cell-based, white New Zealand rabbits. As to conditions: 10^−7 M; for Aorta relaxation: strips first treated with sodium nitroprussiate 10^−7 M, percentage with respect to the initial sodium nitroprussiate treatment. How it is done: The experiment was carried out as described in the previous Example, by using aorta tissues taken from white New Zealand rabbits.

Counter-ions that a name gives are not always drawn.

In the case of `CC(=O)Oc1ccccc1C(=O)Oc1ccc(CO[N+](=O)[O-])nc1C.Cl` [NCX 4050, 2-(acetyloxy)benzoic acid 6-(nitroxymethyl)-2-methylpyridyl ester hydrochloride], in the test on cavernous body (concentration 10^-6 M), the “Cavernous body % relaxation” value was 80% and the Power ratio was found to be 1. In the test on aorta (concentration 10^-6 M), this compound came in with an Aorta % of 80%.

With `CCCc1nn(C)c2c(=O)[nH]c(-c3cc(S(=O)(=O)N4CCN(C)CC4)ccc3OCC)nc12` [Sildenafil Citrate, sildenafil citrate, reference compound], the Aorta relaxation in test [1] was found to be 170%. Further, in the test on cavernous body (concentration 3 × 10^-5 M), the “Cavernous body % relaxation” value came to 50%. Further, the Aorta % with aorta (concentration 3 × 10^-5 M) is on record as 75%.

For sildenafil nitrate, the “Strengthening of the relaxing effect induced by sodium nitroprussiate (hypotensive effect), in words” value in test [1] (aorta strips pretreated with sodium nitroprussiate 10^−7 M) is given as “lower strengthening of the relaxing effect induced by sodium nitroprussiate compared with the sildenafil citrate”. Also, the Aorta relaxation in test [1] came out at 120%. Besides, the “Cavernous body % relaxation” value in the test on cavernous body (concentration 10^-6 M) was determined as 100%. Besides, the Power ratio was 5 with cavernous body (concentration 10^-6 M) and “clearly in favour of the myorelaxing effect” in the test with cavernous body (concentration 10^-6 M, listed as sildenafil nitrate). The Aorta % with aorta (concentration 10^-6 M) was found to be 20%.
